This is an account of results in US4056622A, “N-sulfonyl-N-dihalophenylimidazolidinediones” (Sumitomo Chemical Company, Limited, priority 1975, dated 1977).

Structures are written as SMILES. Values after ≈ are worked out from the molar mass of the structure shown.

In test [1] the test system is Alternaria bracissicola. The test is described as follows: Test for Alternaria bracissicola-controlling effect (chinese cabbage). It is filed as in vivo. To be noted: 7 ml per pot. On the procedure:
An aqueous dilution of the test compound in the form of a wettable powder preparation was applied to chinese cabbage (variety: Nozaki No. 2), cultured in pots of 9 cm in diameter and almost grown up to the two leaved stage, at a rate of 7 ml per pot. After one day, a spore suspension of Alternaria bracissicola was sprayed on the surface of the leaf for inoculation. The pots were left in a dark, moist room for one day and then under illumination for 2 days. Then, the infectious state was examined. The degree of damage was determined in the following manner. The rate of infectious area on the leaf was measured and classified in one of the infectious indexes (0, 1, 2, 3, 4, 5) according to the undermentioned criteria. The number of leaves corresponding to each infectious index (n0, n1, n2, n3, n4, n5) was determined, and calculation was effected according to the undermentioned equation.

Test [2] relates to Sclerotinia sclerotiorum. The test is described as follows: Test for Sclerotinia sclerotiorum-controlling effect on cucumbers. The conditions noted are these: cucumber; 100 ppm active ingredient, 7 ml per pot; 3 days after inoculation. It is filed as in vivo. Here is the method:
An aqueous dilution of the test compound in the form of a wettable powder preparation was applied to cucumbers, cultured in pots of 9 cm in diameter, when the first leaf was almost developed, at a rate of 7 ml per pot. After one day, Sclerotinia sclerotiorum was inoculated on the surface of the leaf, and the infectious state was examined three days thereafter. The degree of damage was determined in the following manner. The rate of infectious area on the leaf was measured and classified in one of the six infectious indexes (0, 1, 2, 3, 4, 5) according to the undermentioned criteria. The number of leaves corresponding to each infectious index (n0, n1, n2, n3, n4, n5) was determined, and calculation was effected according to the undermentioned equation.

Test [3] relates to Pellicularia sasakii. Kind of test: Test for Pellicularia sasakii-controlling effect on rice plants. Type of test: in vivo. To be noted: dust, 1.4 % active ingredient, 3 kg per 10 a, 5 days after inoculation. On the procedure: The test compound in the form of a dust preparation was applied to rice plants (variety: Wase-Asahi), cultured in porcelain Wagner pots (1/500 a) and grown up to a grass height of 50 to 60 cm, at a rate of 3 kg per 10 a by the use of a duster. After one day, a mycelial disc of Pellicularia sasakii was attached to the sheath of each stem for inoculation. Five days thereafter, the size of the diseased spot generated on the sheath was measured, and the degree of damage was calculated according to the following equation to estimate the disease-controlling effect of the compound. [formula]

Test [4] relates to Botrytis cinerea. The test is described as follows: Test for Botrytis cinerea-controlling effect on cucumbers: disease preventing effect. It is filed as in vivo. The conditions noted are these: cucumber; 50 ppm active ingredient, 7 ml per pot; 3 days after inoculation. Here is the method:
An aqueous dilution of the test compound in the form of a wettable powder preparation was applied to cotyledons of cucumbers, cultered in pots of 9 cm in diameter and the first leaf was nipped off when it developed, at a rate of 7 ml per pot. After one day, agar discs (diameter: 5 mm) with Botrytis cinerea were attached to the leaves for inoculation. Three days thereafter, the disease severity was observed, and the disease-controllingeffect was estimated.
(§1) Percentage of control was determined by the following procedure. The rate of diseased area on the tested leaf was measured and classified in one of the six infectious indexes (0, 1, 2, 3, 4, 5) according to the undermentioned criteria. The number of leaves corresponding to each infectious index (n0, n1, n2, n3, n4, n5) was determined, and calculation was effected according to the undermentioned equation.

In test [5] the test system is Botrytis cinerea. Kind of test: Test for Botrytis cinerea on cucumbers: systemic activity by the water culture method. It is filed as in vivo. To be noted: cucumber, 5 ppm solution, 3 days, 3 days after inoculation. On the procedure:
The systemic activity of the test compound was tested by the water culture method in the following manner. The plants were pulled out from the pots carefully so as not to damage the roots, and the soil attached to the roots was well removed by water-washing. The plants were placed into flasks containing a 5 ppm solution of the test compound (50 ml) and allowed to stand for 3 days at a constant temperature under illumination. Agar discs with the mycelium were attached to the cotyledons for inoculation, and the degree of damage was examined three days thereafter.
as §1

Test [6] concerns Botrytis cinerea. The test is described as follows: Test for Botrytis cinerea on cucumbers: effect of prevention of diseased spot-development. Type of test: in vivo. To be noted: cucumber, 7 ml per pot, applied one day after inoculation. On the procedure:
The test for examining the effect of prevention of diseased spot-development was carried out in the following manner. An agar disc with the mycelium was attached to the first leaf for inoculation. After one day, the diameter of the diseased spot was measured. The solution of the test compound was applied to the plant at a rate of 7 ml per pot, and two days thereafter, the diameter of the diseased spot was again measured, and the effect for prevention of diseased spot-development was calculated according to the following equation: [formula]

For test [7], the system named is Aspergillus niger ATCC 6275. Kind of test: Antimicrobial spectrum against industrial fungi, agar medium dilution method: Aspergillus niger. It is filed as cell-based. The conditions noted are these: ATCC6275, A. niger, read-out: Minimal inhibitory concentration of active ingredient. From the text:
(§2) The effect for inhibition of hyphae growth was examined by the agar medium dilution method on Aspergillus niger ATCC 6275, Cladosporium herbarum IAM F 517 and Chaetomium globosum ATCC 6205 multiplying on industrial products and damaging them.

For test [8], the system named is Cladosporium herbarum IAM F 517. The test is described as follows: Antimicrobial spectrum against industrial fungi, agar medium dilution method: Cladosporium herbarum. Type of test: cell-based. To be noted: IAMF517, C. herbarum, read-out: Minimal inhibitory concentration of active ingredient.
From the text: as §2

The test system of test [9] is Chaetomium globosum ATCC 6205. The test is described as follows: Antimicrobial spectrum against industrial fungi, agar medium dilution method: Chaetomium globosum. To be noted: ATCC6205, C. globosum, read-out: Minimal inhibitory concentration of active ingredient. Type of test: cell-based.
From the text: as §2

Regarding `CS(=O)(=O)N1CC(=O)N(c2cc(Cl)cc(Cl)c2)C1=O` [Compound 53], the Degree of damage worked out at 7% in test [1] (100 ppm active ingredient) and 11% in test [1] (200 ppm active ingredient).

For the molecule `CCS(=O)(=O)N1CC(=O)N(c2cc(Cl)cc(Cl)c2)C1=O` [Compound 54], the Degree of damage in [2] is given as 12%; in test [1] (100 ppm active ingredient) it was 5%; in [1] (200 ppm active ingredient), 2%.

Take `CCCS(=O)(=O)N1CC(=O)N(c2cc(Cl)cc(Cl)c2)C1=O` [Compound 55]: the Degree of damage came out at 25% in test [3], 0% in test [2], 0% in test [1] (100 ppm active ingredient) and 0% in test [1] (200 ppm active ingredient). In addition, the “Disease-preventing value: Disease preventing effect” value in test [4] worked out at 100%. For the same molecule, the “Disease-preventing value: Systemic activity” value in test [5] worked out at 88%. Besides, the “Effect for prevention of diseased spot-development” value (“Effect for prevention” for short) in [6] (100 ppm) came to 88%.

On to `CC(C)S(=O)(=O)N1CC(=O)N(c2cc(Cl)cc(Cl)c2)C1=O` [Compound 56], for which the Degree of damage in test [3] came out at 19%; in test [2] it was 0%. Further, the “Disease-preventing value: Disease preventing effect” value in test [4] worked out at 100%. Also, the “Disease-preventing value: Systemic activity” value in test [5] stood at 92%. Besides, in [6] (100 ppm), the “Effect for prevention” value came to 78%.

Take `CCCCS(=O)(=O)N1CC(=O)N(c2cc(Cl)cc(Cl)c2)C1=O` [Compound 57]: the “Disease-preventing value: Disease preventing effect” value in [4] was found to be 98%. Moreover, the “Disease-preventing value: Systemic activity” value in test [5] came to 79%. Moreover, in test [6] (100 ppm), the “Effect for prevention” value was 65%. In addition, the Degree of damage in test [2] stood at 0%; in [1] (100 ppm active ingredient), 1%; in test [1] (200 ppm active ingredient) it was 0%.

Regarding `CC(C)CS(=O)(=O)N1CC(=O)N(c2cc(Cl)cc(Cl)c2)C1=O` [Compound 58], the “Disease-preventing value: Disease preventing effect” value in [4] was 100%. In test [5], the “Disease-preventing value: Systemic activity” value was found to be 63%. Moreover, the “Effect for prevention” value in [6] (100 ppm) is recorded as 73%.

For `CCC(C)S(=O)(=O)N1CC(=O)N(c2cc(Cl)cc(Cl)c2)C1=O` (stereo not shown) [Compound 59], the Degree of damage in test [3] is 19%. The MIC in [7], in test [8] and in test [9] was 1000 µg/mL (≈ 2740 µM) each time.

On to `CCCCCS(=O)(=O)N1CC(=O)N(c2cc(Cl)cc(Cl)c2)C1=O` [Compound 61], for which the figures for the MIC in [7], in [8] and in test [9] were 1000 µg/mL (≈ 2640 µM), 2000 µg/mL (≈ 5270 µM) and 1000 µg/mL (≈ 2640 µM), respectively.

The molecule `C=CCS(=O)(=O)N1CC(=O)N(c2cc(Cl)cc(Cl)c2)C1=O` [Compound 63] returned a Degree of damage in [2] of 9%.

Molecule `CCCS(=O)(=O)N1CC(=O)N(c2cc(Br)cc(Br)c2)C1=O` [Compound 64] registered a Degree of damage in [2] of 0%.

For `CCCS(=O)(=O)N1C(=O)N(c2cc(Cl)cc(Cl)c2)C(=O)C1C` (stereo not shown) [Compound 66], the Degree of damage in test [3] is reported as 16%; in [2], 3%.

As to `CCCS(=O)(=O)N1C(=O)N(c2cc(Cl)cc(Cl)c2)C(=O)C1(C)C` [Compound 69], the values for the Degree of damage in [1] (100 ppm active ingredient) and in [1] (200 ppm active ingredient) were 21% and 6%, respectively.

`O=C1CN(S(=O)(=O)CCCCl)C(=O)N1c1cc(Cl)cc(Cl)c1` [Compound 70]: the values for the Degree of damage in test [2], in [1] (100 ppm active ingredient) and in [1] (200 ppm active ingredient) were 0%, 2% and 1%, respectively.

For the molecule `CCCCNC(=O)n1c(NC(=O)OC)nc2ccccc21` [Methyl-1-(butylcarbamoyl)-2-benzimidazole carbamate, reference compound], the “Disease-preventing value: Disease preventing effect” value in test [4] was determined as 90%. Also, the “Disease-preventing value: Systemic activity” value in test [5] came to 91%. In addition, the “Effect for prevention” value in test [6] (500 ppm) was determined as 87%. Moreover, the Degree of damage in [2] is on record as 32%.

For `CCC(=O)N1CC(=O)N(c2cc(Cl)cc(Cl)c2)C1=O` [reference compound], in test [4], the “Disease-preventing value: Disease preventing effect” value came out at 89%. In test [5], the “Disease-preventing value: Systemic activity” value is 0%. Besides, the “Effect for prevention” value in test [6] (500 ppm) is on record as 21%.

Regarding `O=C1CNC(=O)N1c1cc(Cl)cc(Cl)c1` [reference compound], the “Disease-preventing value: Disease preventing effect” value in [4] came out at 70%. Besides, in [5], the “Disease-preventing value: Systemic activity” value is listed as 0%. In addition, in test [6] (500 ppm), the “Effect for prevention” value is 13%.
